Source: patent US9555058B2, “Antigen presenting cancer vaccine” (CALIFORNIA STEM CELL, INC., priority 2011, dated 2017)

Legend:
Assay type in all cases: cell-based, human
melanoma cell lines [1] = assay: Apoptosis by flow cytometry using 7-AAD and annexin-V; details: 1000 IU/mL IFN-gamma 72 hours with pan caspase inhibitor
Protocol: The methodology of the study was as follows. Autologous and model melanoma tumor cell lines were incubated with 1000 IU/mL of IFN-gamma for 72 hours prior to assaying for autophagy, apoptosis and MHC class II expression. Autophagy was detected by immunobloting with antibodies against LC3 II and by flow cytometry with Enzo's CytoID® Autophagy Detection Kit. Apoptosis and MHC class II induction were assayed by flow cytometry using 7-AAD and annexin-V staining and antibodies against MHC class II, respectively.
Analysis of tumor cell death and changes in major histocompatibility class II expression in response to IFN-gamma were conducted by use of antibodies directed against MHC class II, annexin-V and 7-amino-actinomycin D (7-AAD) and acquired on a Beckton-Dickenson FACS Calibur® flow cytometer.
What was investigated was the induction of autophagy, apoptosis and MHC class II molecules after IFN-gamma treatment of melanoma tumor cells in vitro. Autologous and model melanoma tumor cell lines were incubated with 1000 IU/mL of IFN-gamma for 72 hours prior to assaying for autophagy, apoptosis and […] class II expression. Autophagy was detected by immunobloting with antibodies against LC3 II and by flow cytometry with Enzo's CytoID Autophagy Detection Kit. […]

[2] = system: autologous melanoma tumor cells; assay: Trypan-blue dye exclusion viability after IFN-gamma; details: IFN-gamma 72 hours in complete medium; N=47; p=0.014 vs 89.1±6.8% not treated
Protocol: Pure tumor cells were generated according to Cornforth, et al. (Cornforth, et al. (2011) Cancer Immunol. Immunother. 60:123-131; Dillman, et al. (1993) J. Immunother. Emphasis Tumor Immunol. 14:65-69; Dillman, et al. (2000) Cancer Biother. Radiopharm. 15:161-168). The tumor cells were then incubated with 1,000 U/mL of interferon-gamma (InterMune, Brisbane, Calif.) for 72 h, irradiated with 100Gy from a cesium source and cryopreserved (Selvan, et al. (2007) Int. J. Cancer 122:1374-1383; Selvan, et al. (2010) Melanoma Res. 20:280-292). The IFN-gamma treated and irradiated tumor cells were recovered from cryopreservation, washed with phosphate buffered saline (PBS), and then added to the cultivated dendritic cells (DCs) and then incubated for about 24 h. The antigen-loaded DCs were harvested by gentle scraping with a rubber policeman and cryopreserved. Aliquots of IFN-gamma treated or untreated tumor cells and loaded DCs were obtained for flow cytometry evaluation and trypan-blue exclusion assay. […]

MHC class II = assay: Flow cytometry of MHC class II induction by IFN-gamma in autologous tumor cells; details: 1000 IU/mL IFN-gamma 72 hours
Protocol: (§1) FIGS. 2A-D show characterization of IFN-gamma treated autologous tumor cells used for loading dendritic cells. Autologous melanoma tumor cells were treated with or without 1000 IU/mL IFN-gamma for 72 hours in 15% FBS/ECS in RPMI, harvested and irradiated with 100Gy and cryopreserved. Cells were then thawed in AIMV and a sample taken for flow cytometry and for preparation of cell lysates for immunoblotting prior to antigen loading of DCs. An example of four separate autologous melanoma cell lines is shown (FIG. 2A, FIG. 2B and FIG. 2C). Induction major histocompatibility complexes by IFN-gamma treatment of autologous tumor cells (FIG. 2D). Tumor cells were harvested after being treated with or without 1000 IU/mL IFN-gamma for 72 hours and then assayed for MHC class I and class II. Control isotype antibodies were used to identify positive populations. Dark data points indicate median mean fluorescent plus/minus 95% confidence interval. N=65. After irradiation, melanoma cells are checked by assays to ensure that there is not any mitosis.
Phenotypic characterization of the dendritic cell populations were performed using monoclonal antibodies against surface markers obtained from BD Pharmingen San Diego, Calif.: anti-MHC class II conjugated to PerCp, anti CD11c conjugated to APC, anti-CD80, anti-CD83, anti-CD86 conjugated to PE. Isotype controls were used to determine percent positive cells. […]

[3] = system: autologous melanoma cell lines; assay: Immunoblotting of lysates of melanoma cells incubated with or without IFN-gamma; details: 1000 IU/mL IFN-gamma 72 hours; four autologous melanoma cell lines
Protocol: as §1
Cytoplasmic cell lysates were prepared with Mammalian Protein Extraction Reagent (Thermo Scientific, Rockford, Ill.) plus protease inhibitor cocktail (Roche, Indianapolis, Ind.) at 10,000 cells/uL on ice. Approximately 25 uLs/lane of cell lysates were separated on 12.5% tris-glycine gels, transferred to PVDF membrane and probed with antibodies against the following: calreticulin (MBL, Woburn, Mass.), Hsp-60, Hsp-70, Hsp-90 (R&D Systems, Minneapolis, Minn.), HMBG-1 (Cell Signaling, Danvers, Mass.), ICAM-1 (Santa Cruz Biotech, Santa Cruz, Calif.), Mel-4, Mart-1 (Signet, Emeryville, Calif.), tyrosinase (Upstate, Lake Placid, N.Y.) and GADPH (Calbiochem, Darmstadt, Germany).
Lysates from cells that were incubated in the presence or absence of IFN-gamma were subjected to immunoblotting for a variety of molecules that may be important mediators of immunity (FIG. 1B). […]

melanoma cell lines [4] = assay: Immunohistochemistry of a panel of melanoma associated antigens with or without IFN-gamma; details: 1000 IU/mL IFN-gamma 72 hours, N=27 samples
Protocol: Expression of a panel antigens by melanoma lines were determined using immunocytochemical procedure. Cells were cultured in 8-chamber culture slides (Thermo Fisher, Rochester, N.Y.) in the presence or absence of 1000 IU/mL IFN-gamma. After 72 hours, the cells were washed 3 times with 1× Phosphate Buffered Saline (PBS) and fixed in cold acetone. After blocking endogenous peroxidase, cells were incubated with appropriate primary antibodies against the antigens listed. Immunohistochemistry was performed using biotinylated anitmouse or rabbit immunoglobulins, Super Sensitive enzyme-conjugated streptavidin labeling and horse radish peroxidase chromogen, and substrate kits (Biogenex, San Ramon, Calif.). The reactivity of the following anti-human polyclonal or monoclonal antibodies was investigated with isotype matched control antibody: S-100 and HMB-45 (Biogenex, San Ramon, Calif.), Mel-2, Mel-5, Mart-1 (Signet, Dedham, Mass.), Tyrosinase and Mage-1 (Thermo Scientific, Fremont, Calif.), Melan-A, HLA-class I and HLA-class II (Dako, Denmark).
Lysates from cells that were incubated in the presence or absence of IFN-gamma were subjected to immunoblotting for a variety of molecules that may be important mediators of immunity (FIG. 1B). In the setting of melanoma cells treated with IFN-gamma, heat shock proteins appear to be differentially regulated but remain largely present in the cell preparations, especially in the case of hsp-70.

SK-5-Mel cells = assay: Autophagy by flow cytometry (Enzo CytoID Autophagy Detection), IFN-gamma with or without z-VAD; details: 1000 IU/mL IFN-gamma 72 hours; 20 uM z-VAD where present; vs 5% FBS/RPMI
Protocol: FIGS. 6A and 6B reveal apoptosis and autophagy induced in response to interferon-gamma. SK-5-Mel cells were incubated with 1000 IU/mL of IFN-gamma for 72 hours after which non-adherent and adherent populations were collected and assayed for apoptosis and autophagy by flow cytometry using […] and Annexin-V (FIG. 6A). Enzo Cyto-ID Autophagy Detection Dye was used to measure autophagy by flow cytometry by measuring the mean intensity peak shift of dye provided by the manufacturer (FIG. 6B). Fold changes in the peak shift in comparison to 5% FBS/RPMI are shown in FIG. 6C with serum-free as positive control for the induction of autophagy.
SK-5-Mel cells were treated with 1000 IU/mL of IFN-gamma in the presence of 20 uM of the pan-caspase inhibitor z-VAD or its control compound, z-FA for 72 hours. The cells were harvested and assayed for autophagy by flow cytometry as in FIG. 6C.
The methodology of the study was as follows. […] Autophagy was detected by immunobloting with antibodies against LC3 II and by flow cytometry with Enzo's CytoID® Autophagy Detection Kit. […]
What was investigated was the induction of autophagy, apoptosis and MHC class II molecules after IFN-gamma treatment of melanoma tumor cells in vitro. […] Autophagy was detected by immunobloting with antibodies against LC3 II and by flow cytometry with Enzo's CytoID Autophagy Detection Kit. […]

| Substance | apoptosis in IFN-gamma treated cells (melanoma cell lines [1]) | viability (trypan-blue dye exclusion) [2] [%] | cases with MHC class II induction greater than two fold (MHC class II) [%] | ICAM-1 expression (immunoblot) [3] | calreticulin and HMGB-1 expression (immunoblot) [3] | common melanoma antigens (mel-4, Mart-1 and tyrosinase) expression (immunoblot) [3] | Change after IFN-gamma treatment: Down (melanoma cell lines [4]; antigen MAGE-1) [%] | Change after IFN-gamma treatment: None (melanoma cell lines [4]; antigen Mel-2) [%] | Change after IFN-gamma treatment: Down (melanoma cell lines [4]; antigen Tyrosinase) [%] | Change after IFN-gamma treatment: None (melanoma cell lines [4]; antigen Tyrosinase) [%] | autophagy, fold change of peak shift (SK-5-Mel cells) [fold change] |
| --- | --- | --- | --- | --- | --- | --- | --- | --- | --- | --- | --- |
| carbobenzoxy-valyl-alanyl-aspartyl-[O-methyl]-fluoromethylketone [Z-VAD] | prevents apoptosis | – | – | – | – | – | – | – | – | – | – |
| interferon-gamma [IFN-gamma, interferon-gamma (InterMune, Brisbane, Calif.), type II interferon, used at 1000 IU/mL for 72 hours on melanoma cells] | – | 84.9±9.3 | 70 | significantly up-regulated | up-regulated in some cases | down regulated | 61.5 | 46.2 | 60.0 | 40.0 | 2.75±0.15 |
